Measured values as given in patent publication US10336724B2, “D-amino acid oxidase inhibitors and therapeutic uses thereof” (SyneuRx International (Taiwan) Corp., priority 2017, dated 2019).
pIC50: −log10 of the molar value. “Also recorded” adds a separate entry of the source.

Experiments:
hDAAO (human DAAO) = hDAAO (human DAAO) (Homo sapiens (Human), UniProt P14920); assay: hDAAO (human DAAO) activity, D-serine substrate, Amplex Red fluorescence; format: biochemical
Protocol: The hDAAO (human DAAO) activity was measured by using D-serine as a substrate to produce H2O2. The produced H2O2 would be oxidized by peroxidase, and the produced free radicals would further react with Amplex Red reagent to emit fluorescence. The intensity of fluorescence at 590 nm would be measured to represent the activity of hDAAO. All compounds were dissolved in DMSO. Each compound was diluted with DMSO in 3-fold serial dilution to create a 9-point dose response curve. Each sample was added in triplicate, 1 μL/well, into 96-well black plates. Positive control wells were added with 1 μL of DMSO. Then 49 μL of assay buffer (100 mM Tris-HCl, pH 8.5) containing 1.2 ng/mL hDAAO, 900 nM FAD, 0.2 units/mL HRP, and 100 μM Amplex Red was added to each well of the plate using a multichannel pipette. Next, 50 μL of 100 mM D-Serine in assay buffer was added. The reaction plates were then incubated in the dark at room temperature. The fluorescence readout was detected at 0 and 20 minute by Molecular Device Gemini EM fluorescence reader using the following settings: excitation filter 530 nm, and emission filter 590 nm. The percentage of inhibition values for each well was calculated with the following equation: The percentage of inhibition=(fluorescencesample, 20 min−fluorescencesample, 0 min)/(fluorescenceDMSO, 20 min−fluorescenceDMSO, 0 min)×100%
The nonlinear curve fitting model in GraphPad Prism 5 was used to calculate IC50 value for each compound.

mice = assay: Spontaneous locomotion in open field; format: in vivo; details: oral, 446 and 892 mg/kg, 120 minutes observation
Protocol: (§1) The mice were group housed (3-5 mice per cage) with food and water available ad libitum in polysulfone ventilated cages (Alternative Design, AR, USA) in the animal rooms of SyneuRx International (Taiwan) Corp. The colony was maintained on a 12/12-hr light/dark cycle at the temperature of 22±2° C. and all behavioral studies were performed during the dark cycle. All animals used in this study were adult mice (at least 2.5 months of age). All animal procedures were performed according to the protocols approved by Institutional Animal Care and Use Committee (IACUC).
The compound of Example 1 was placed into 100% PEG400, and was sonic vibrated until solution became clear. […]
Mice that received oral administration of either vehicle or low/high dose of the compound of Example 1 was immediately subjected to open field test and the index of spontaneous locomotion was expressed as total travel distance measured within the defined time frame.
(§2) The mice were placed in a Plexiglas cage (37.5 cm×21.5 cm×18 cm) under 50-65 lux light intensity, the spontaneous locomotion was measured for 120 minutes using the EthoVision video tracking system (Noldus Information Technology, the Netherlands). The travel distance of each mouse was measured as an index of spontaneous locomotion.

MK801-treated mice [1] = assay: Open field task, MK801-induced hyper-locomotion; format: in vivo; details: Example 1 446 or 892 mg/kg orally 20 min prior to MK801 0.1 mg/kg i.p.; 120 minutes testing period
Protocol: as §2
as §1, with “rooms of the SyneuRx International” for “rooms of SyneuRx International”, “performed during dark cycle.” for “performed during the dark cycle.”, “approved by the Institutional Animal” for “approved by Institutional Animal”, “Committee (IACUC). […]” for “Committee (IACUC).”
(§3) All mice in the experiments were tested by open field task and pre-pulse inhibition with at least 1-week interval between two tasks. […] The percentage of pre-pulse inhibition was calculated by the following formula: % PPI=100×[(PA score)−(pp-P score)]/(PA score), where the PA score was the average of the PA value in the middle blocks. […]

MK801-treated mice [2] = assay: Pre-pulse inhibition (PPI) test, MK801-induced deficit of sensorimotor gating; format: in vivo; details: Example 1 446 or 892 mg/kg orally 20 min prior to MK801 0.2 mg/kg i.p.; each pre-pulse intensity
Protocol: The mice were group housed (3-5 mice per cage) with food and water available ad libitum in polysulfone ventilated cages (Alternative Design, AR, USA) in the animal rooms of the SyneuRx International (Taiwan) Corp. The colony was maintained on a 12/12-hr light/dark cycle at the temperature of 22±2° C. and all behavioral studies were performed during dark cycle. All animals used in this study were adult mice (at least 2.5 months of age). All animal procedures were performed according to the protocols approved by the Institutional Animal Care and Use Committee (IACUC). The mice were randomly assigned into four groups, Group 1: vehicle control, Group 2: MK801, Group 3: Example 1 at 446 mg/kg+MK801, Group 4: Example 1 at 892 mg/kg+MK801. […]
as §3

Chain of hDAAO (human DAAO) (P14920 whole entry): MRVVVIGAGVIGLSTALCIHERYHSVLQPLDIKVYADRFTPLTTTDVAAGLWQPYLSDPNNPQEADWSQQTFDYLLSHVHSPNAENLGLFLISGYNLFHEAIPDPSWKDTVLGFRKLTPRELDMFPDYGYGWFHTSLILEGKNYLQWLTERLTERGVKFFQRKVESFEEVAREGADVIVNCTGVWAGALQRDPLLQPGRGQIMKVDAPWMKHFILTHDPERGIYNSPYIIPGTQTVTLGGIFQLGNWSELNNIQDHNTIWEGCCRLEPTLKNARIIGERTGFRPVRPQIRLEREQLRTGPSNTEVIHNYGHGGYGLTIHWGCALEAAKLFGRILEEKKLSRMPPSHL

| SMILES | pIC50 (hDAAO (human DAAO)) | spontaneous locomotion (total travel distance) versus vehicle (mice) | locomotion activity in open field task compared to control group (MK801-treated mice [1]) | percentage of pre-pulse inhibition compared to control group (MK801-treated mice [2]) |
| --- | --- | --- | --- | --- |
| O=C(Oc1coc(CO)cc1=O)c1ccc[nH]1 [Compound 1, 6-(hydroxymethyl)-4-oxo-4H-pyran-3-yl 1H-pyrrole-2-carboxylate] | 3.30 to 4.00 | no significant difference between groups | equal level of locomotion activity as mice in the control group; also recorded: reversed/protected MK801-induced hyper-locomotion activity | the same level of pre-pulse inhibition percentage; also recorded: rescued/protected the MK801-induced PPI deficits |
| C[C@]12N[C@H](Cc3ccccc31)c1ccccc12 [MK801, reference compound] |  |  | displayed hyper-locomotion | lower percentage of pre-pulse inhibition |
